According to patent EP4467141A1, “PYRAZOLO-QUINOLINES AS SELECTIVE INHIBITORS OF GENOTOXIC STRESS-INDUCED IKK/NF- KB PATHWAYS FOR CANCER THERAPY” (Max-Delbrück-Centrum für Molekulare Medizin in der …, priority 2023, dated 2024):

Legend:
Assay in all cases: Kinase panel study
Assay type in all cases: biochemical
Conditions in all cases: read-out: Percentage of inhibition; for inhibition at 1 µM: 1000nM; for inhibition at 10 µM: 10000nM
[1] = biological target: T1, CSNK1G2 (CK1 gamma 2) (Homo sapiens, UniProt P78368)
T1 construct: purchased Thermo Fisher Scientific
Method in brief: (§1)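 A commercial kinase profiling service ran the assays according to its ZLyte or Adapta standard protocols. Compound was present at 10 µM or 1 µM, and kinase activity loss was expressed as percent inhibition.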

[2] = biological target: T2, EPHA8 (Homo sapiens, UniProt P29322)
T2 construct: purchased Thermo Fisher Scientific
T2 sequence (P29322 28-1005): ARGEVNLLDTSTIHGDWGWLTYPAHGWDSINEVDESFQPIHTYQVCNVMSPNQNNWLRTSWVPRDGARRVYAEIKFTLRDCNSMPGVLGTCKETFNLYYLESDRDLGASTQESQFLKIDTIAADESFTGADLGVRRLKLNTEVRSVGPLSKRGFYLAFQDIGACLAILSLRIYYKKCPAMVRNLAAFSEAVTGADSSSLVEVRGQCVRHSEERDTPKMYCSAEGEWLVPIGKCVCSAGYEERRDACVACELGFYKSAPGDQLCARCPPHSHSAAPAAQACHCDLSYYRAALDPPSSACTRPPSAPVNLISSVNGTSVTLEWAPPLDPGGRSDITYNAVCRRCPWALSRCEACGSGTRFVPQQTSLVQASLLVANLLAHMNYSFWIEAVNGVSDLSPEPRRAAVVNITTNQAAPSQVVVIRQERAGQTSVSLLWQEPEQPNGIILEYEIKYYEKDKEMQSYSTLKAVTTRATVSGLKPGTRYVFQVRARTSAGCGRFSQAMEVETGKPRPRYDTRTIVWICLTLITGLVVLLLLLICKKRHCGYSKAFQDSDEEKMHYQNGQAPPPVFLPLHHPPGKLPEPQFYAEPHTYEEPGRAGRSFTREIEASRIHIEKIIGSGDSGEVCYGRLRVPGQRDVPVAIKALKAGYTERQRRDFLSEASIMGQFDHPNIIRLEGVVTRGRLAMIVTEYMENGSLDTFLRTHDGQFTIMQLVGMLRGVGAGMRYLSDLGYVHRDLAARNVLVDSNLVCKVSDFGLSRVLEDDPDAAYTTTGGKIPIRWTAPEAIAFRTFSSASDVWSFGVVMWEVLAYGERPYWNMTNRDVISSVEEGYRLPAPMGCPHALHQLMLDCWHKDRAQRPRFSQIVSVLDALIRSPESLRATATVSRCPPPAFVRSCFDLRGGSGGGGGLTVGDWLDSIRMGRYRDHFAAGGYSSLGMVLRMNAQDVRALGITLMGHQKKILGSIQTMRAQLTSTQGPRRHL
Method in brief: as §1

[3] = biological target: T3, PRKG1 (Homo sapiens, UniProt Q13976)
T3 construct: purchased Thermo Fisher Scientific
T3 sequence (Q13976 1-671): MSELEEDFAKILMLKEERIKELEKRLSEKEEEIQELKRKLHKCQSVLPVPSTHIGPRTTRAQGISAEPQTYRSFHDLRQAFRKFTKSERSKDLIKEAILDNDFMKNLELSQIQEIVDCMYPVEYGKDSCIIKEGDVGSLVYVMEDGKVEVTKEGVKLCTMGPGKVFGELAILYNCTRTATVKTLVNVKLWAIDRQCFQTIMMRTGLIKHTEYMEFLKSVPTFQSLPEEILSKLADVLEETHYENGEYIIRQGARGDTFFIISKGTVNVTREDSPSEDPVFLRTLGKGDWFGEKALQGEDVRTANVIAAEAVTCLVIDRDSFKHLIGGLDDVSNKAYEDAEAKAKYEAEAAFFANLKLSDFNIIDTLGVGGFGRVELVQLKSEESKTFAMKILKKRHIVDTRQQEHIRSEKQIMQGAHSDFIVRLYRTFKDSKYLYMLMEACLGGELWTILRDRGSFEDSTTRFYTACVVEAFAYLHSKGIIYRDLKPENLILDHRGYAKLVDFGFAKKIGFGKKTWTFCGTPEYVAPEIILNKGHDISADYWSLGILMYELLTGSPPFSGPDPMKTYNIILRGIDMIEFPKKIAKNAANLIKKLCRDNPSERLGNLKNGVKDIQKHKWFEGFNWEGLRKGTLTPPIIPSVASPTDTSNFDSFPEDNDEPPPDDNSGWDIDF
Method in brief: as §1

[4] = biological target: T4, EPHA2 (Homo sapiens, UniProt P29317)
T4 construct: purchased Thermo Fisher Scientific
Method in brief: as §1

T1 sequence (P78368 whole entry): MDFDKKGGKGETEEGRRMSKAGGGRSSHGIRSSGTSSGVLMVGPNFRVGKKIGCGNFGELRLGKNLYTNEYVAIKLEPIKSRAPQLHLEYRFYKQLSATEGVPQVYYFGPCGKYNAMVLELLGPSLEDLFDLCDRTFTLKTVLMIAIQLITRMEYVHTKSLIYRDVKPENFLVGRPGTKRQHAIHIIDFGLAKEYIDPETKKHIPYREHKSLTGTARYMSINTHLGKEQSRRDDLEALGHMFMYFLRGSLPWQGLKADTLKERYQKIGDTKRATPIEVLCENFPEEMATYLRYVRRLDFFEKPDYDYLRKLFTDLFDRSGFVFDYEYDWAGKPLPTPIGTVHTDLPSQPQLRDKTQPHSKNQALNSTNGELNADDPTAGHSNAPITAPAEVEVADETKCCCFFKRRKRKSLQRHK
T4 sequence (P29317 24-976): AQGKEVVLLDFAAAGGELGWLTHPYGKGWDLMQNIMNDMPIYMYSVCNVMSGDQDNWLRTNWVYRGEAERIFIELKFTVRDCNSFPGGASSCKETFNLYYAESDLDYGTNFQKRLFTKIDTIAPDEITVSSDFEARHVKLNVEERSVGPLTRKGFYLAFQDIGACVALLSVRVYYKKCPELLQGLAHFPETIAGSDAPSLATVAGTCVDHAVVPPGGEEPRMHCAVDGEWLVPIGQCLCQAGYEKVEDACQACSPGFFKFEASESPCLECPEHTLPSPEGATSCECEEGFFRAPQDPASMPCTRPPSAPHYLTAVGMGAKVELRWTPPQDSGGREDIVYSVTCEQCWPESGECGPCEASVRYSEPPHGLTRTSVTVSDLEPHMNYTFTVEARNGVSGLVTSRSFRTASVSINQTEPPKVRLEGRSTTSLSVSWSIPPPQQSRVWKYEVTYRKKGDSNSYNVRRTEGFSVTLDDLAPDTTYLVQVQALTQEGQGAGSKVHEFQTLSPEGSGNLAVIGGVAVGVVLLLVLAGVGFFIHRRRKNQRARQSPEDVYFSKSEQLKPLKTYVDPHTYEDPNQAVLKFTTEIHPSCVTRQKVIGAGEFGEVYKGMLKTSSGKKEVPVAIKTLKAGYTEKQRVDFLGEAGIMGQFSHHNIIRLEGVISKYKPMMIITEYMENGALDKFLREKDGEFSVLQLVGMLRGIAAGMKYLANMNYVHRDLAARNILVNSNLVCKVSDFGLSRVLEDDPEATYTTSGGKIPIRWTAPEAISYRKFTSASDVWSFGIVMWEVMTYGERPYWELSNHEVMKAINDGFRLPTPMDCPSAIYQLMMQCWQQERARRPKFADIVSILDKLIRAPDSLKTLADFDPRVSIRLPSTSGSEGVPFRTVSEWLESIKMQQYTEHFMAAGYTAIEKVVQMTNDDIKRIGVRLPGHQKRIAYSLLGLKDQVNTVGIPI

| Compound | inhibition at 1 µM [1] [%] | inhibition at 10 µM [1] [%] | inhibition at 1 µM [2] [%] | inhibition at 10 µM [2] [%] | inhibition at 1 µM [3] [%] | inhibition at 10 µM [3] [%] | inhibition at 1 µM [4] [%] | inhibition at 10 µM [4] [%] |
| --- | --- | --- | --- | --- | --- | --- | --- | --- |
| COc1ccc2c(c1OC)c(=O)n1c3ccc(O)cc3c3ccnc2c31 [MW01, 5-Hydroxy-10,11-dimethoxy-9H-benzo[c]indolo[3,2,1-ij][1,5]naphthyridin-9-one] | 22 | 41 | 4 | 21 | 27 | 59 | 6 | 14 |
| COc1ccc2cc3c(N)nn(C(=O)c4cccc(N(C)C)c4)c3nc2c1 [MW05, (3-Amino-7-methoxypyrazolo[3,4-b]quinolin-1-yl)-[3-(dimethylamino)phenyl]methanone] | 4 | 13 | -1 | -9 | 5 | -11 | 13 | -15 |
